Source: patent publication US5215916A, “Super glucocorticoid receptors: receptors with increased affinity and specificity for glucocorticoid steriods” (priority 1991, dated 1993)
Structures can show the parent of a compound that is named as a salt.

Tests used:
[1] = target: T1, C656G mutant glucocorticoid receptor (Rattus norvegicus, UniProt P06536, C656G/D98G); assay: Competition binding assay with [3H]Dex, COS-7 cytosol, C656G receptor; design: Thus the full length receptor was removed from the VARO vector with BamHI and inserted into the SVL vector; expressed in transfected cells; host or cells: COS-7 (cytosol)
T1 sequence (P06536 1-795 D98G/C656G): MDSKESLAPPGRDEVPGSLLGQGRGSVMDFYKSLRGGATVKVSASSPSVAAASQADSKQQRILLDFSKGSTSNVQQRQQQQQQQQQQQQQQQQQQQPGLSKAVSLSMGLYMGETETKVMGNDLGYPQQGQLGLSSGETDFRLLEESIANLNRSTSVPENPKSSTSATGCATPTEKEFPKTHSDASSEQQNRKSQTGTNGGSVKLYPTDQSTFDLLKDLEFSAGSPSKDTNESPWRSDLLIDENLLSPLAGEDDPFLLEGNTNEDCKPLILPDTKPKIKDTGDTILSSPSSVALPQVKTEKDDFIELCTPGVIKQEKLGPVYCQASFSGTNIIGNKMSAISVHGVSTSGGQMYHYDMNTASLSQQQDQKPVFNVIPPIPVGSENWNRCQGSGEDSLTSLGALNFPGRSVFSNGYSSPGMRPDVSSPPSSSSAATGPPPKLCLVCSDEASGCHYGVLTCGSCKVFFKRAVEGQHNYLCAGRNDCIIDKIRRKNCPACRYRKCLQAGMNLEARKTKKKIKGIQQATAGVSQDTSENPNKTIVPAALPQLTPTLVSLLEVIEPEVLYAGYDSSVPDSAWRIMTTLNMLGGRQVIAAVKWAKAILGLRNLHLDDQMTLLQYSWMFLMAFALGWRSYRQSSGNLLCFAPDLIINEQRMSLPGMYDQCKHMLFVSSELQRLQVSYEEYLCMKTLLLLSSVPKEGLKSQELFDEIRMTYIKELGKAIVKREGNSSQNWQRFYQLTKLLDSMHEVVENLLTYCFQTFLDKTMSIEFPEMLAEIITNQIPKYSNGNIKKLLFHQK
Experimental: Monolayer cultures of COS-7 cells were grown in DMEM (Gibco) supplemented with 5% fetal bovine serum (FBS) (Biofluids) at 37° C. in a 5% CO2 incubator. Standard calcium phosphate transfection methods were used to introduce the wild type and mutant receptor expression vectors (pSVL) into COS-7 cells (100 mm plates [Costar] at a cell density of about 10^6 /plate were each treated with 10 μg of plasmid DNA). After ~16 hrs of incubation at 37° C. in a 5% CO2 incubator, the excess calcium phosphate and precipitate were removed by washing with phosphate buffered saline (PBS). The cells were incubated at 37° C. for another ~48 hr in DMEM/ 5% FBS and harvested by trypsinization followed by centrifugation (for 10 min at 1570 ×g) and washing 3 times with PBS. The washed cells were stored at -80° C. until used.
COS-7 cell cytosol containing the steroid-free receptors was prepared by cell lysis at -80° C. and centrifugation at 15,000 ×g and labeled as described for HTC cells (S. S. Simons and P. A. Miller, Biochem 23:6876-6882 (1984)). Briefly, 30% cytosol solutions containing ~21 mM Na2 MoO4 were prepared with three parts COS-7 cell cytosol, 2 parts pH 9.5 TAPS buffer, and 5 parts pH 8.8 TAPS buffer. The total EtOH in each experiment was kept constant and at a level of ≤1%. […] After incubation for 2.5 hr, the [^3 H]Dex-Mes-labeled solutions were quick-frozen at -78° C. for subsequent SDS-polyacrylamide gel electrophoresis analysis. The specifically bound [^3 H]Dex was determined by first adding a 10% dextran-coated charcoal solution (added volume =20% of reaction solution volume) to remove free steroid and then subtracting the nonspecific binding seen in the presence of excess nonradioactive Dex.
Duplicate aliquots (72 μl) of COS-7 cell cytosol (33.5% in pH 8.8 TAPS/27 mM Na2 MoO4 buffer) were treated with 4 μl each of [^3 H]Dex (in pH 8.8 TAPS buffer) and various concentrations of non-radioactive competing steroid (in 20% EtOH in pH 8.8 TAPS buffer) (final concentration of [^3 H]Dex ≈3 ×10^-8 M). The average specific binding was determined after 2.5 or 24 hr of incubation as described above, expressed as percentage of the non-competed control and plotted versus the log10 of the concentration of the competing steroid.
The specificity of steroid binding was determined by Rodbard correction (Rodbard, 1973) of the data from a competition binding assay (S. S. Simons et al., Biochem. Biophys. Res. Comm. 86:793-800 (1979); Miller and Simons, 1988). The initial data were collected from 2.5 hr binding assays because of concerns about the stability of the receptors over longer times.

[2] = target: T1, C656G mutant glucocorticoid receptor; details: CV-1 cells, FIG. 1; C656G vs wild type
Experimental: The biological activity of wild type (.quadrature.) or C656G mutant ( ) receptors was determined in CV-1 cells as described in the Example Section. The determined amounts of CAT activity from each plate were then plotted as a function of the concentration of dexamethasone added to each.
Subconfluent cultures of CV-1 cells were co-transfected, using the standard calcium phosphate procedure, with 0.2 μg VARO receptor expression vector (containing the mutant receptor driven by the SV40 enhancer and the α-globulin promoter) and 1 μg G46TCO reporter vector (CAT gene driven by the thymidine kinase promoter [to -109 bp] and a 46 bp synthetic GRE derived from the murine mammary tumor virus long terminal repeat) for each 60 mm dish. Cells were incubated overnight at 37° C. in a 5% CO2 incubator with the DNA precipitates, after which they were washed twice with PBS, and fresh medium (Dulbecco's modified Eagle's medium H-16 supplemented with 5% fetal calf serum) was added together with the indicated hormone.
After an additional 24 hr, at 37° C. in a 5% CO2 incubator, extracts were prepared by four freeze-thaw cycles (-75° C., 65° C.) and centrifuged for 5 min at 15,000 xg. Heat-treated extracts (5 min, 65° C.) were normalized for protein content and the amount of expressed CAT enzyme activity was determined by a non-chromatographic assay (M. J. Sleigh, Anal. Biochem. 156:251-256 (1986)).

glucocorticoid receptor = details: Simons et al., 1987; cited from earlier work
[3] = test system: mouse glucocorticoid receptor; details: L. I. Smith et al., 1988; cited from earlier work
glucocorticoid receptors = details: cited from earlier work
[4] = test system: any other steroid receptors; details: cited from earlier work

Q: What does the source list for `C[C@@H]1C[C@H]2[C@@H]3CCC4=CC(=O)C=C[C@]4(C)[C@@]3(F)[C@@H](O)C[C@]2(C)[C@@]1(O)C(=O)CO` [Dex, dexamethasone]?
A: greater preference of C656G than wild type receptor for glucocorticoids vs aldosterone and progesterone [1]: 10-19 fold; lower concentrations for Dex induction of CAT activity with C656G than with wild type receptor [2]: ~ 10 fold

Q: Which “covalent labeling of receptor thiol by Dex-Mes” value (glucocorticoid receptor) does the source give for `C[C@@H]1C[C@H]2[C@@H]3CCC4=CC(=O)C=C[C@]4(C)[C@@]3(F)[C@@H](O)C[C@]2(C)[C@@]1(O)C(=O)COS(C)(=O)=O` [Dex-Mes, dexamethasone mesylate] here?
A: covalently label just one thiol in the receptor, i.e., cysteine 656

Q: What about the “labeling of the identical cysteine in mouse receptor by Dex-Mes” value [3] of the same compound?
A: also labeled

Q: With `O=[As][O-].[Na+]` [arsenite] as the compound, how does the “effect of preincubation of unbound receptors on steroid binding” value (glucocorticoid receptors) read?
A: eliminates all steroid binding

Q: And the “effect on steroid binding activity of glucocorticoid receptors” value (glucocorticoid receptors)?
A: blocks the steroid binding activity of glucocorticoid receptors

Q: And the “effect on steroid binding activity of other steroid receptors” value [4]?
A: not of any other steroid receptors
